In patent US5691373A, “Nonpeptide endothelin antagonists I” (Warner-Lambert Company, priority 1995, dated 1997) one finds IC50 data, which are given here for 13 compounds.

One experiment deals with T1, human ETB receptor (Homo sapiens, UniProt P24530).
T1 construct: expressed in transfected cells; host or cells: CHO-K1 cells, pRc-CMW (so in the source) expression vector, electroporation; membranes used
T1 sequence (P24530 27-442): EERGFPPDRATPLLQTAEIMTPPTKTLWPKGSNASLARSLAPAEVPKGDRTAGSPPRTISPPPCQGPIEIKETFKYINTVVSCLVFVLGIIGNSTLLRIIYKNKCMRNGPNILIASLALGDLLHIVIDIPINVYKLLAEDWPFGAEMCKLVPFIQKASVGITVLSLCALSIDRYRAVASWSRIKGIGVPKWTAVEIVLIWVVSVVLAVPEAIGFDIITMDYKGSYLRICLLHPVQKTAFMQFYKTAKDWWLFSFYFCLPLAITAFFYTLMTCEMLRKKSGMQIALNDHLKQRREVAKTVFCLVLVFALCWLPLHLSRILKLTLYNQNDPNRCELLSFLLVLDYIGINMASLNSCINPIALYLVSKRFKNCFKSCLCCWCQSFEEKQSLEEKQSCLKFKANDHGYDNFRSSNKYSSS
The experiment is described as follows: ERBA-B: [125I]-ET-1 binding, recombinant human ETB receptor expressed in CHO-K1 cells. Conditions: human cloned ETB receptor, read-out: ERBA-B IC50, human cloned receptor data. How it is done:
Count filters for radioactivity in gamma counter.
The above process has also been modified by using human recombinant CHO-K1 cells.
The tissue used for human ETB was recombinant human ETB receptor expressed in CHO-K1 cells (chinese hamster ovary cells). The gene for human ETB receptor was cloned and inserted into the pRc-CMW expression vector, then transfected into CHO-K1 cells by electroporation. For binding assays, membranes (0.7 mg protein) of CHO-K1 cells expressing recombinant human ETB receptor were used.
^d Human cloned receptor data

For the next experiment, the target named is T2, ETA (Oryctolagus cuniculus, UniProt A5A8K3).
T2 sequence (A5A8K3 21-427): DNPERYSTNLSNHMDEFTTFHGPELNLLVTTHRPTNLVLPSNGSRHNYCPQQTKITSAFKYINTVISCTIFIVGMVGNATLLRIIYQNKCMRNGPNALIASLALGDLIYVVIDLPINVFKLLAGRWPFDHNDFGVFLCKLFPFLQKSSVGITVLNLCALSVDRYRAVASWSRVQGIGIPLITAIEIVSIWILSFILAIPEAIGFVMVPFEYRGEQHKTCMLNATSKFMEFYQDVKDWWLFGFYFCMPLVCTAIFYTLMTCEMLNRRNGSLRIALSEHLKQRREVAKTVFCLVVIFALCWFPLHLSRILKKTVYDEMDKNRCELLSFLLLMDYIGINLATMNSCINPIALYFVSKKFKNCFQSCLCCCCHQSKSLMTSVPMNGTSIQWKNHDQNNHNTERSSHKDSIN
Conditions: ERBA-A IC50, [125I]-ET-1, rabbit renal artery vascular smooth muscle cells.

Consider `COc1ccc(C2(O)OC(=O)C(c3ccc4c(c3)OCO4)=C2CC2CCCCCC2)cc1` (stereo not shown) [Example 339, 3-Benzo[1,3]dioxol-5-yl-4-cycloheptylmethyl-5-hydroxy-5-(4-methoxy-phenyl)-5H-furan-2-one], for which the results for the IC50 on human ETB receptor and at ETA were 1300 nM and 240 nM, respectively. Taken in the same sequence, the figures for `COc1ccc(CC2=C(c3ccc(Cl)c(Cl)c3)C(=O)OC2(O)c2ccc(OC)cc2)cc1` (stereo not shown) [Example 117, 3-(3,4-Dichlorophenyl)-5-hydroxy-4-(4-methoxybenzyl)-5-(4-methoxyphenyl)-5H -furan-2-one] were 2700 nM and 310 nM.

For `C=CCOc1cc(OC)ccc1CC1=C(c2ccc3c(c2)OCO3)C(=O)OC1(O)c1ccc(OC)cc1` (stereo not shown) [Example 343, 4(2-Allyloxy-4-methoxy-benzyl)-3-benzo[1,3]dioxol-5-yl-5-hydroxy-5-(4-methoxy-phenyl)-5H-furan-2-one], the IC50 stood at 2200 nM on human ETB receptor and 10 nM at ETA. On to `COc1ccc(C2(O)OC(=O)C(c3ccc4c(c3)OCO4)=C2Cc2ccccc2)c(OCC(=O)O)c1` (stereo not shown) [Example 341, [2(4-Benzo[1,3]dioxol-5-yl-3-benzyl-2-hydroxy-5-oxo-2,5-dihydro-furan-2-yl) -5-methoxy-phenoxy]-acetic acid], for which the figures for the IC50 on human ETB receptor and on ETA were above 2500 nM and 80 nM, respectively. For `COc1ccc(C2(O)OC(=O)C(c3ccc4c(c3)OCO4)=C2CC2CC=CCC2)cc1` (stereo not shown) [Example 316, 3-Benzo[1,3]dioxol-5-yl-4-cyclohex-3-enylmethyl-5-hydroxy-5-(4-methoxy-phenyl)-5H-furan-2-one], in that order: 690 nM and 8.1 nM.

Regarding `COC(=O)Cc1ccc(CC2=C(c3ccc4c(c3)OCO4)C(=O)OC2(O)c2ccc(OC)cc2)cc1` (stereo not shown) [Example 291, {4-[4-Benzo[1,3]dioxol-5-yl-2-hydroxy-2-(4-methoxyphenyl)-5-oxo-2,5-dihydro-furan-3-ylmethyl]-phenyl}-acetic acid methyl ester], the IC50 at human ETB receptor turned out to be 1400 nM; at ETA, 40 nM. `COc1ccc(C(=O)/C(Cc2cc(OC)c(OC)c(OC)c2)=C(\C(=O)O)c2cc(OC)c3c(c2)OCO3)cc1C` [Example 369, Sodium 2-(7-Methoxy-benzo[1,3]dioxol-5-yl)-3-(4-methoxy-3-methyl-benzoyl)-4-(3,4,5-trimethoxyphenyl)-but-2-enoate]: on human ETB receptor, the IC50 came out at 328 nM.

Compound `COc1ccc(C2(O)OC(=O)C(c3cc(Cl)cc(Cl)c3)=C2Cc2ccccc2)cc1` (stereo not shown) [Example 149, 4-Benzyl-3-(3,5-dichloro-phenyl)-5-hydroxy-5-(4-methoxy-phenyl)-5H-furan-2-one] displayed an IC50 on ETA of 600 nM. Consider `COc1ccc(C2(O)OC(=O)C(c3ccc4c(c3)OCO4)=C2Cc2ccc(OC)c(OC)c2OC)cc1` (stereo not shown) [Example 305, 3-Benzo[1,3]dioxol-5-yl-5-hydroxy-5-(4-methoxy-phenyl)-4-(2,3,4-trimethoxy-benzyl)-5H-furan-2-one], for which the IC50 against ETA stood at 33 nM. The compound `COc1ccc(C2(O)OC(=O)C(c3ccc4c(c3)OCO4)=C2Cc2cccc(C(=O)O)c2)cc1` (stereo not shown) [Example 292, 3-[4-Benzo[1,3]dioxol-5-yl-2-hydroxy-2-(4-methoxyphenyl)-5-oxo-2,5-dihydro-furan-3-ylmethyl]-benzoic acid] returned an IC50 at ETA of 83 nM. Still for that read-out and setting: to `Cc1ccc(C2(O)OC(=O)C(c3ccc4c(c3)OCO4)=C2Cc2ccccc2)cc1C` (stereo not shown) [Example 212, 3-Benzo[1,3]dioxol-5-yl-4-benzyl-5-(3,4-dimethylphenyl)-5-hydroxy-5H-furan-2-one] belongs 1300 nM; to `COC(=O)c1ccc(C2(O)OC(=O)C(c3ccc4c(c3)OCO4)=C2Cc2ccccc2)cc1` (stereo not shown) [Example 198, 4-(4-Benzo[1,3]dioxol-5-yl-3-benzyl-2-hydroxy-5-oxo-2,5-dihydrofuran-2-yl)b enzoic acid methyl ester], 410 nM. `COc1ccc(C2(O)OC(=O)C(c3ccc(F)c(F)c3)=C2Cc2ccccc2)cc1` (stereo not shown) [Example 143, 4-Benzyl-3-(3,4-difluorophenyl)-5-hydroxy-5-(4-methoxyphenyl)-5H-furan-2-one] showed an IC50 against ETA of 1900 nM.

The term IC50 denotes the concentration at which inhibition is half-maximal.
